The target of experiment [1] is T1, 37 kDa laminin receptor precursor (37LRP/67LR) (Homo sapiens, UniProt P08865).
T1 construct: gene RPSA
The experiment can be described thus: ELISA-type inhibition of r37LRP binding to immobilized laminin (and YIGSR).

The target of experiment [2] is T1, 37 kDa laminin receptor precursor (37LRP/67LR). As to the kind of experiment: ELISA-type inhibition of r37LRP binding to immobilized laminin at […]. It is filed as biochemical.

As a reminder, the IC50 is the point on the concentration scale where inhibition reaches its midpoint. In experiment [1], `COc1ccc(NCc2c(O)ccc3ccccc23)cc1` [compound 13, 1-((4-methoxyanilino)methyl)-2-naphthol] came in with an IC50 of 58.9 µM.

For `Cc1ccc(NCc2c(O)ccc3ccccc23)cc1` [compound 50, 1-(4-toluidinomethyl)-2-naphthol], the “ELISA-type inhibition of r37LRP binding to immobilized laminin at 50 μM” value (from here on “ELISA-type inhibition of r37LRP binding”) in experiment [2] is “NSC47923, NSC48478, NSC48861 and NSC48869 were active to the same extent as NSC47924, by in vitro binding assays”.

As to `Oc1ccc2ccccc2c1CNc1ccc(Cl)cc1` [compound 52, 1-((4-chloroanilino)methyl)-2-naphthol], the “ELISA-type inhibition of r37LRP binding” value in experiment [2] was “NSC47923, NSC48478, NSC48861 and NSC48869 were active to the same extent as NSC47924, by in vitro binding assays”.

Turning to `Oc1ccc2ccccc2c1CN(Cc1c(O)ccc2ccccc12)c1ccccc1` [compound 60, 1-((((2-hydroxy-1-naphthyl)methyl)anilino)methyl)-2-naphthol], the “ELISA-type inhibition of r37LRP binding” value in experiment [2] is “NSC47923, NSC48478, NSC48861 and NSC48869 were active to the same extent as NSC47924, by in vitro binding assays”.

Regarding `Cc1ccc(N(Cc2c(O)ccc3ccccc23)Cc2c(O)ccc3ccccc23)cc1` [compound 61, 1-((((2-hydroxy-1-naphthyl)methyl)-4-methylanilino)methyl)-2-naphthol], the “ELISA-type inhibition of r37LRP binding” value in experiment [2] was “NSC47923, NSC48478, NSC48861 and NSC48869 were active to the same extent as NSC47924, by in vitro binding assays”.
